Assay: mn = molality of the nth substance listed, in mol/kg
Settings: 350 kPa, Liquid; for apparent molar heat capacity: Extra sensitive DSC

OC[C@@H](O)[C@@H](O)CO [meso-1,2,3,4-butanetetrol] + O
Settings	apparent molar heat capacity [J/K/mol]	mass density [kg/m3]
278.15 K, m1 = 0.0201	261	1000.64
278.15 K, m1 = 0.05	279	1001.78
278.15 K, m1 = 0.0999	275.3	1003.47
278.15 K, m1 = 0.2501	273	1009.14
278.15 K, m1 = 0.4998	272.1	1017.67
278.15 K, m1 = 1	270.3	1034.19
278.15 K, m1 = 2.002	264	1062.98
278.15 K, m1 = 3.003	267.2	1087.04
283.15 K, m1 = 0.0201	273	1000.38
283.15 K, m1 = 0.05	290	1001.54
283.15 K, m1 = 0.0999	287.2	1003.19
283.15 K, m1 = 0.2501	285.1	1008.79
283.15 K, m1 = 0.4998	284.1	1017.48
283.15 K, m1 = 1	282.7	1033.48
283.15 K, m1 = 2.002	277.2	1061.96
283.15 K, m1 = 3.003	279.1	1085.8
288.15 K, m1 = 0.0201	282	999.84
288.15 K, m1 = 0.05	300	1000.96
288.15 K, m1 = 0.0999	296.3	1002.66
288.15 K, m1 = 0.2501	294.4	1008.13
288.15 K, m1 = 0.4998	293.4	1016.68
288.15 K, m1 = 1	291.9	1032.49
288.15 K, m1 = 2.002	286.3	1060.61
288.15 K, m1 = 3.003	288	1084.24
293.15 K, m1 = 0.0201	290	–
293.15 K, m1 = 0.05	307	–
293.15 K, m1 = 0.0999	303.8	–
293.15 K, m1 = 0.2501	302.3	–
293.15 K, m1 = 0.4998	301.3	–
293.15 K, m1 = 1	299.9	–
293.15 K, m1 = 2.002	294.2	–
293.15 K, m1 = 3.003	295.7	–
298.15 K, m1 = 0.0201	296	997.79
298.15 K, m1 = 0.05	314	998.88
298.15 K, m1 = 0.0999	310.6	1000.55
298.15 K, m1 = 0.2501	309	1005.86
298.15 K, m1 = 0.4998	308.1	1014.19
298.15 K, m1 = 1	306.6	1029.78
298.15 K, m1 = 2.002	300.7	1057.38
298.15 K, m1 = 3.003	302.1	1080.61
303.15 K, m1 = 0.0201	301	–
303.15 K, m1 = 0.05	320	–
303.15 K, m1 = 0.0999	316.6	–
303.15 K, m1 = 0.2501	315	–
303.15 K, m1 = 0.4998	314	–
303.15 K, m1 = 1	312.5	–
303.15 K, m1 = 2.002	306.6	–
303.15 K, m1 = 3.003	307.8	–
308.15 K, m1 = 0.0201	307	994.74
308.15 K, m1 = 0.05	325	995.77
308.15 K, m1 = 0.0999	321.8	997.29
308.15 K, m1 = 0.2501	320.2	1002.7
308.15 K, m1 = 0.4998	319.2	1010.88
308.15 K, m1 = 1	317.6	1026.18
308.15 K, m1 = 2.002	311.8	1053.42
308.15 K, m1 = 3.003	312.9	1076.46
313.15 K, m1 = 0.0201	311	–
313.15 K, m1 = 0.05	330	–
313.15 K, m1 = 0.0999	326.5	–
313.15 K, m1 = 0.2501	324.8	–
313.15 K, m1 = 0.4998	323.8	–
313.15 K, m1 = 1	322.3	–
313.15 K, m1 = 2.002	316.4	–
313.15 K, m1 = 3.003	317.4	–
318.15 K, m1 = 0.0201	315	990.96
318.15 K, m1 = 0.05	334	991.95
318.15 K, m1 = 0.0999	330.6	993.44
318.15 K, m1 = 0.2501	328.9	998.78
318.15 K, m1 = 0.4998	327.9	–
318.15 K, m1 = 1	326.4	–
318.15 K, m1 = 2.002	320.6	–
318.15 K, m1 = 3.003	321.5	–

— the NIST ThermoML archive (doi:10.1016/j.jct.2006.08.009)
